US9499509B2, “Dihydrochalcone derivatives and their use as antibiotic agents” (UNIVERSITÉ DU QUÉBEC À CHICOUTIMI, priority 2012, dated 2016)
In brackets after ≈: the same amount, converted by molar mass.

What was measured:
[1] = tested on: S. aureus wild type strain (ATCC 25923); assay: Antibiotic assay (absorption 660 nm, Example 2), S. aureus wild type; type: cell-based, Staphylococcus aureus; conditions: for MIC: S. aureus WT (ATCC 25923); for S. aureus WT ATCC 25923 (toxicity on bacteria): Table 7, same values as MIC of Table 6
Description: (§1) Antibiotic agents. Gentamicin sulfate was provided by Calbiochem. Chloramphenicol was provided by Sigma-Aldrich.
(§2) Antibiotic assay. […] The bacteria strains were inoculated in nutrients broth. […] All bacteria were plated in nutrients broth at a concentration of 450 000 bacteria/m L.
(§3) Compounds IV to XXI were diluted in dimethylsulfoxide. […] The compounds were tested at 8 different concentrations.
(§4) Each well contained: 100 μL of bacteria, 100 μL of the compounds tested. The plates were incubated at 37° C. for 6 h. The absorption was read using a Varioskan flash multimode Reader™ (Thermo Scientific) at 660 nm.
(§5) MRSA. Ten (10) strains of MRSA obtained as described above were tested along with an S. aureus wild type (WT) strain (ATCC 25923).

WS-1 cell lines = assay: Cytotoxicity assay on WS-1 (Example 2); type: cell-based; set-up: unit not given here; conditions: Table 7; WS-1, 48 h
Description: Cytotoxicity assay. […] The WS-1 cell lines were provided by ATCC. […] The compounds tested were then added at 8 different concentrations. […] In Table 7, the therapeutic indexes of compounds IV to XXI are presented.

MRSA strains = assay: Antibiotic assay (absorption 660 nm, Example 2), MRSA strains; type: cell-based, Staphylococcus aureus
Description: as §1, §2, §3, §4, §5

| Compound | MIC [1] [µM] | S. aureus WT ATCC 25923 (toxicity on bacteria) [1] | WS-1 (toxicity on normal cells, fibroblast) (WS-1 cell lines) | MIC (MRSA strains; MRSA 1) [µM] | MIC (MRSA strains; MRSA 2) [µM] | MIC (MRSA strains; MRSA 3) [µM] | MIC (MRSA strains; MRSA 4) [µM] | MIC (MRSA strains; MRSA 5) [µM] | MIC (MRSA strains; MRSA 6) [µM] | MIC (MRSA strains; MRSA 7) [µM] | MIC (MRSA strains; MRSA 8) [µM] | MIC (MRSA strains; MRSA 9) [µM] | MIC (MRSA strains; MRSA 10) [µM] |
| --- | --- | --- | --- | --- | --- | --- | --- | --- | --- | --- | --- | --- | --- |
| O=C(CCc1ccccc1)c1c(O)cc(O)c2c1OC(c1ccc(O)cc1)CC2 (racemic) [IV] | 1.27 ± 0.06 (≈ 0.496 µg/mL) | 1.27 ± 0.06 | 16 ± 2 | 0.84 ± 0.04 (≈ 0.328 µg/mL) | 1.50 ± 0.06 (≈ 0.586 µg/mL) | 1.02 ± 0.06 (≈ 0.398 µg/mL) | 2.6 ± 0.2 (≈ 1.02 µg/mL) | 0.95 ± 0.01 (≈ 0.371 µg/mL) | 2.11 ± 0.07 (≈ 0.824 µg/mL) | 1.22 ± 0.04 (≈ 0.476 µg/mL) | 1.35 ± 0.05 (≈ 0.527 µg/mL) | 1.32 ± 0.04 (≈ 0.515 µg/mL) | 1.23 ± 0.08 (≈ 0.48 µg/mL) |
| COc1ccc(CCC(=O)c2c(O)cc(O)c3c2OC(c2ccc(O)cc2)CC3)cc1 (racemic) [VII] | 2.2 ± 0.2 (≈ 0.925 µg/mL) | 2.2 ± 0.2 | 26 | 2.9 ± 0.1 (≈ 1.22 µg/mL) | 2.5 ± 0.1 (≈ 1.05 µg/mL) | 1.7 ± 0.1 (≈ 0.715 µg/mL) | 2.4 ± 0.2 (≈ 1.01 µg/mL) | 2.0 ± 0.1 (≈ 0.841 µg/mL) | 2.7 ± 0.1 (≈ 1.14 µg/mL) | 2.13 ± 0.02 (≈ 0.896 µg/mL) | 2.2 ± 0.5 (≈ 0.925 µg/mL) | 2.5 ± 0.2 (≈ 1.05 µg/mL) | 1.2 ± 0.2 (≈ 0.505 µg/mL) |
| O=C(CCc1ccccc1)c1c(O)cc2c(c1O)CC(O)C(c1ccc(O)cc1)O2 (racemic) [XIII] | 3.2 ± 0.2 (≈ 1.3 µg/mL) | 3.2 ± 0.2 | 10.1 ± 0.8 | 2.9 ± 0.2 (≈ 1.18 µg/mL) | 2.7 ± 0.1 (≈ 1.1 µg/mL) | 7.8 ± 0.5 (≈ 3.17 µg/mL) | 6.8 ± 0.7 (≈ 2.76 µg/mL) | 2.7 ± 0.3 (≈ 1.1 µg/mL) | 5.4 ± 0.4 (≈ 2.19 µg/mL) | 2.0 ± 0.2 (≈ 0.813 µg/mL) | 3.4 ± 0.3 (≈ 1.38 µg/mL) | 2.9 ± 0.1 (≈ 1.18 µg/mL) | 4.2 ± 0.8 (≈ 1.71 µg/mL) |
| COc1ccc(CCC(=O)c2c(O)cc(O)c3c2OC(c2ccc(O)cc2)C(O)C3)cc1 (racemic) [XIX] | 2.5 ± 0.1 (≈ 1.09 µg/mL) | 2.5 ± 0.1 | 8.2 ± 1.0 | 2.6 ± 0.1 (≈ 1.13 µg/mL) | 2.4 ± 0.1 (≈ 1.05 µg/mL) | 4.3 ± 0.4 (≈ 1.88 µg/mL) | 2.9 ± 0.6 (≈ 1.27 µg/mL) | 3.1 ± 0.6 (≈ 1.35 µg/mL) | 2.8 ± 0.2 (≈ 1.22 µg/mL) | 2.6 ± 0.1 (≈ 1.13 µg/mL) | 2.7 ± 0.2 (≈ 1.18 µg/mL) | 3.0 ± 0.3 (≈ 1.31 µg/mL) | 2.56 ± 0.04 (≈ 1.12 µg/mL) |
| O=C(CCc1ccccc1)c1c(O)cc(O)c2c1OC(c1ccc(O)cc1)C(O)C2 (racemic) [XVI] | 5.9 ± 0.3 (≈ 2.4 µg/mL) | 5.9 ± 0.3 | >50 | 5.6 ± 0.5 (≈ 2.28 µg/mL) | 4.7 ± 0.4 (≈ 1.91 µg/mL) | 5.1 ± 0.3 (≈ 2.07 µg/mL) | 5.7 ± 0.4 (≈ 2.32 µg/mL) | 4.1 ± 0.6 (≈ 1.67 µg/mL) | 5.4 ± 0.7 (≈ 2.19 µg/mL) | 3.5 ± 0.3 (≈ 1.42 µg/mL) | 5.3 ± 0.6 (≈ 2.15 µg/mL) | 4.8 ± 0.2 (≈ 1.95 µg/mL) | 3.3 ± 0.1 (≈ 1.34 µg/mL) |
| COc1cc(O)c(C(=O)CCc2ccc(O)cc2)c2c1CCC(c1ccc(O)cc1)O2 (racemic) [X] | 5.3 ± 0.6 (≈ 2.23 µg/mL) | 5.3 ± 0.6 | 16 ± 4 | 5.2 ± 0.4 (≈ 2.19 µg/mL) | 5.7 ± 0.4 (≈ 2.4 µg/mL) | 4 (≈ 1.68 µg/mL) | 3 (≈ 1.26 µg/mL) | 4 ± 2 (≈ 1.68 µg/mL) | 9 ± 1 (≈ 3.78 µg/mL) | 5.3 ± 0.2 (≈ 2.23 µg/mL) | – | 5.3 ± 0.4 (≈ 2.23 µg/mL) | 5.6 ± 0.5 (≈ 2.35 µg/mL) |
| COc1ccc(CCC(=O)c2c(O)cc(O)c3c2O[C@@H](c2ccc(O)cc2)CC3)cc1 [IX] | 8.0 ± 0.3 (≈ 3.36 µg/mL) | 8.0 ± 0.3 | >50 | 7.7 ± 0.3 (≈ 3.24 µg/mL) | 9 ± 1 (≈ 3.78 µg/mL) | 6.25 ± 0.06 (≈ 2.63 µg/mL) | 6.7 ± 0.2 (≈ 2.82 µg/mL) | 6.9 ± 0.4 (≈ 2.9 µg/mL) | 7.1 ± 0.9 (≈ 2.99 µg/mL) | 5.2 ± 0.4 (≈ 2.19 µg/mL) | 4.9 ± 0.2 (≈ 2.06 µg/mL) | 3.7 ± 0.2 (≈ 1.56 µg/mL) | 7.5 ± 0.7 (≈ 3.15 µg/mL) |
| COc1ccc(CCC(=O)c2c(O)cc(O)c3c2O[C@H](c2ccc(O)cc2)CC3)cc1 [VIII] | >50 | >50 | >50 | >50 | >50 | >50 | >50 | >50 | >50 | >50 | >50 | >50 | >50 |
| O=C(CCc1ccccc1)c1c(O)cc(O)c2c1O[C@@H](c1ccc(O)cc1)CC2 [VI] | 2.7 ± 0.3 (≈ 1.05 µg/mL) | 2.7 ± 0.3 | >50 | 3.5 ± 0.1 (≈ 1.37 µg/mL) | 2.9 ± 0.2 (≈ 1.13 µg/mL) | 3.8 ± 0.3 (≈ 1.48 µg/mL) | 5.2 ± 0.4 (≈ 2.03 µg/mL) | 4.9 ± 0.6 (≈ 1.91 µg/mL) | 14.2 ± 0.9 (≈ 5.54 µg/mL) | 3.4 ± 0.2 (≈ 1.33 µg/mL) | 3.8 ± 0.3 (≈ 1.48 µg/mL) | 4.7 ± 0.2 (≈ 1.84 µg/mL) | 4.65 ± 0.06 (≈ 1.82 µg/mL) |
| O=C(CCc1ccccc1)c1c(O)cc(O)c2c1O[C@H](c1ccc(O)cc1)CC2 [V] | 2.5 ± 0.2 (≈ 0.976 µg/mL) | 2.5 ± 0.2 | >50 | 4.1 ± 0.1 (≈ 1.6 µg/mL) | 2.58 ± 0.10 (≈ 1.01 µg/mL) | 3.8 ± 0.2 (≈ 1.48 µg/mL) | 4.7 ± 0.4 (≈ 1.84 µg/mL) | 4.4 ± 0.1 (≈ 1.72 µg/mL) | 6.9 ± 0.4 (≈ 2.69 µg/mL) | 3.0 ± 0.2 (≈ 1.17 µg/mL) | 3.8 ± 0.4 (≈ 1.48 µg/mL) | 6.2 ± 0.4 (≈ 2.42 µg/mL) | 5.0 ± 0.3 (≈ 1.95 µg/mL) |
| COc1cc(O)c(C(=O)CCc2ccc(O)cc2)c2c1CC[C@H](c1ccc(O)cc1)O2 [XII] | 0.58 ± 0.02 (≈ 0.244 µg/mL) | 0.58 ± 0.02 | >50 | 0.55 ± 0.07 (≈ 0.231 µg/mL) | 0.65 ± 0.03 (≈ 0.273 µg/mL) | 1.10 ± 0.07 (≈ 0.463 µg/mL) | 0.64 ± 0.02 (≈ 0.269 µg/mL) | 0.60 ± 0.01 (≈ 0.252 µg/mL) | 0.76 ± 0.04 (≈ 0.32 µg/mL) | 0.57 ± 0.06 (≈ 0.24 µg/mL) | 0.641 ± 0.01 (≈ 0.27 µg/mL) | 0.86 ± 0.03 (≈ 0.362 µg/mL) | 0.7 ± 0.1 (≈ 0.294 µg/mL) |
| O=C(CCc1ccccc1)c1c(O)cc2c(c1O)CC(O)C(c1ccc(O)cc1)O2 (centres unmarked) [XIV] | 10.9 ± 0.6 (≈ 4.43 µg/mL) | 10.9 ± 0.6 | >50 | 21.9 ± 0.2 (≈ 8.9 µg/mL) | 25 ± 2 (≈ 10.2 µg/mL) | 18 ± 1 (≈ 7.32 µg/mL) | 22 ± 2 (≈ 8.94 µg/mL) | 20 ± 2 (≈ 8.13 µg/mL) | 20 ± 3 (≈ 8.13 µg/mL) | 18.5 ± 0.4 (≈ 7.52 µg/mL) | 23.4 ± 1.0 (≈ 9.51 µg/mL) | 20 ± 2 (≈ 8.13 µg/mL) | 11.4 ± 0.6 (≈ 4.63 µg/mL) |
